According to paper PMC8157459, “Exploring the anti-HIV-1 reverse transcriptase, anti-inflammatory, anti-cancer activities and cytotoxicity of two fermented commercial herbal concoctions sold in Limpopo Province of South Africa” (BMC Complementary Medicine and Therapies, 2021):

Target: T1, human sPLA2 (Type V) (Homo sapiens, UniProt P39877)
T1 construct: gene PLA2G5
T1 sequence (P39877 21-138): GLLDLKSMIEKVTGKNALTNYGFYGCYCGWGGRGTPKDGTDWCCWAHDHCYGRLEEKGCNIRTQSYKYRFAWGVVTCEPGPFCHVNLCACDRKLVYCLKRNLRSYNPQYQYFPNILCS
Assay: diheptanoyl thio-PC hydrolysis, DTNB colorimetric
Type: biochemical
Conditions: read-out: sPLA2 (IC50 μg/mL) (converted)
Text: diheptanoyl thio-PC hydrolysis, DTNB colorimetric on human sPLA2 (Type V)

- IC50: 2070 nM
SMILES: CCCCCCCCCCCCCCCCSC[C@H](COP(=O)([O-])OCC[N+](C)(C)C)NC(=O)CCCCCCCCCCCCCCC [Thioetheramide-PC]
